Read-outs that look alike come from different tables or passages of the source.
Columns and labels:
[1] = test system: PKB Ser473 phosphorylation in Rat1-myr-HA-p110 beta cells; test: Reverse protein array, PKB Ser473 phosphorylation in Rat1-myr-HA-p110 beta cells; assay type: cell-based; details: Rattus norvegicus, 0.5 h, 30 minutes compound incubation, read-out: p-PKB/IC50_beta
[2] = test system: S6 Ribosomal Protein phosphorylation Ser235/236 in TSC1 null mouse embryo fibroblast (MEF) cells; test: Reverse protein array, S6 Ribosomal Protein phosphorylation in TSC1 null MEF cells; assay type: cell-based; details: 1 h, TSC1-/- MEFs, 60 minutes
Outline: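 Phospho-S6 (Ser235/236) was quantified by reverse protein array of cell lysates with a phospho-specific primary antibody. […]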

IC50 [1] [nM]	SMILES	IC50 ([2]; read-out: p-S6) [nM]	IC50 ([2]; read-out: p-S6 IC50) [nM]
14.7	CNc1ncc(-c2ccc3ncc4c(c3c2)n(-c2cccnc2C)c(=O)n4C)cn1 [Example 2.2, 3-Methyl-8-(2-methylamino-pyrimidin-5-yl)-1-(2-methyl-pyridin-3-yl)-1,3-dihydro-imidazo[4,5-c]quinolin-2-one]	5.33	–
78.3	CCNc1cc(-c2ccc3ncc4c(c3c2)n(-c2cnc(F)cc2C)c(=O)n4C)cnc1C [Example 16.2, 8-(5-Ethylamino-6-methyl-pyridin-3-yl)-1-(6-fluoro-4-methyl-pyridin-3-yl)-3-methyl-1,3-dihydro-imidazo[4,5-c]quinolin-2-one]	–	6
< 4.57	CNc1ccc(-c2ccc3ncc4c(c3c2)n(-c2ccc(OCCOC)nc2C)c(=O)n4C)cn1 [Example 13.3, 1-[6-(2-Methoxy-ethoxy)-2-methyl-pyridin-3-yl]-3-methyl-8-(6-methylamino-pyridin-3-yl)-1,3-dihydro-imidazo[4,5-c]quinolin-2-one]	–	3
23.2	COCCN(C)c1ccc(-n2c(=O)n(C)c3cnc4ccc(-c5cncc(N)c5)cc4c32)c(C)n1 [Example 15.8, 8-(5-Amino-pyridin-3-yl)-1-{6-[(2-methoxy-ethyl)-methyl-amino]-2-methyl-pyridin-3-yl}-3-methyl-1,3-dihydro-imidazo[4,5-c]quinolin-2-one]	–	6
< 4.57	CCNc1cc(-c2ccc3ncc4c(c3c2)n(-c2ccc(N3CC(F)(F)C3)nc2C)c(=O)n4C)cnc1CO [Example 24.3, 1-[6-(3,3-Difluoro-azetidin-1-yl)-2-methyl-pyridin-3-yl]-8-(5-ethylamino-6-hydroxymethyl-pyridin-3-yl)-3-methyl-1,3-dihydro-imidazo[4,5-c]quinolin-2-one]	–	< 0.457
7	CCNc1cc(-c2ccc3ncc4c(c3c2)n(-c2ccc(N(C)CCOC)nc2C)c(=O)n4C)cnc1C [Example 15.6, 8-(5-Ethylamino-6-methyl-pyridin-3-yl)-1-{6-[(2-methoxy-ethyl)-methyl-amino]-2-methyl-pyridin-3-yl}-3-methyl-1,3-dihydro-imidazo[4,5-c]quinolin-2-one]	–	3
85.7	Cc1nc(N2CCC(O)C2)ccc1-n1c(=O)n(C)c2cnc3ccc(-c4cncc(OC(C)C)c4)cc3c21 (centres unmarked) [Example 27.1, 1-[6-(3-Hydroxy-pyrrolidin-1-yl)-2-methyl-pyridin-3-yl]-8-(5-isopropoxy-pyridin-3-yl)-3-methyl-1,3-dihydro-imidazo[4,5-c]quinolin-2-one]	–	2
27.9	Cc1nc(N2CC(F)(F)C(F)(F)C2)ccc1-n1c(=O)n(C)c2cnc3ccc(-c4cncc(C(C)(C)O)c4)cc3c21 [Example 35.1, 8-[5-(1-Hydroxy-1-methyl-ethyl)-pyridin-3-yl]-3-methyl-1-[2-methyl-6-(3,3,4,4-tetrafluoro-pyrrolidin-1-yl)-pyridin-3-yl]-1,3-dihydro-imidazo[4,5-c]quinolin-2-one]	–	0.79
13.1	Cc1ncccc1-n1c(=O)n(C)c2cnc3ccc(-c4cnc5c(ccn5C)c4)cc3c21 [Example 2.14, 3-Methyl-1-(2-methyl-pyridin-3-yl)-8-(1-methyl-1H-pyrrolo[2,3-b]pyridin-5-yl)-1,3-dihydro-imidazo[4,5-c]quinolin-2-one]	8.74	–
12.8	COc1ccc(-n2c(=O)n(C)c3cnc4ccc(-c5cnc(N)c(C(F)(F)F)c5)cc4c32)c(OC)n1 [Example 8.1, 8-(6-Amino-5-trifluoromethyl-pyridin-3-yl)-1-(2,6-dimethoxy-pyridin-3-yl)-3-methyl-1,3-dihydro-imidazo[4,5-c]quinolin-2-one]	1.07	–
10.8	Cc1ccc(-n2c(=O)n(C)c3cnc4ccc(-c5cnc(N)c(C(F)(F)F)c5)cc4c32)c(C)n1 [Example 14.5, 8-(6-Amino-5-trifluoromethyl-pyridin-3-yl)-1-(2,6-dimethyl-pyridin-3-yl)-3-methyl-1,3-dihydro-imidazo[4,5-c]quinolin-2-one]	–	1
132	COCCN(C)c1ccc(-n2c(=O)n(C)c3cnc4ccc(-c5cnc(N(C)C)nc5)cc4c32)c(C)n1 [Example 15.5, 8-(2-Dimethylamino-pyrimidin-5-yl)-1-{6-[(2-methoxy-ethyl)-methyl-amino]-2-methyl-pyridin-3-yl}-3-methyl-1,3-dihydro-imidazo[4,5-c]quinolin-2-one]	–	19
14.2	CCOc1ccc(-c2ccc3ncc4c(c3c2)n(-c2ccc(N(C)C)nc2C)c(=O)n4C)cn1 [Example 19.3, 1-(6-Dimethylamino-2-methyl-pyridin-3-yl)-8-(6-ethoxy-pyridin-3-yl)-3-methyl-1,3-dihydro-imidazo[4,5-c]quinolin-2-one]	–	2
8.1	CCNc1cc(-c2ccc3ncc4c(c3c2)n(-c2ccc(C)nc2C)c(=O)n4C)cnc1C [Example 14.6, 1-(2,6-Dimethyl-pyridin-3-yl)-8-(5-ethylamino-6-methyl-pyridin-3-yl)-3-methyl-1,3-dihydro-imidazo[4,5-c]quinolin-2-one]	–	2
27.9	CCOc1ccc(-c2ccc3ncc4c(c3c2)n(-c2ccc(N(C)CCOC)nc2C)c(=O)n4C)cn1 [Example 15.3, 8-(6-Ethoxy-pyridin-3-yl)-1-{6-[(2-methoxy-ethyl)-methyl-amino]-2-methyl-pyridin-3-yl}-3-methyl-1,3-dihydro-imidazo[4,5-c]quinolin-2-one]	–	130
< 4.57	CCN(C)c1ccc(-n2c(=O)n(C)c3cnc4ccc(-c5ccc(NC)nc5)cc4c32)c(C)n1 [Example 12.1, 1-[6-(Ethyl-methyl-amino)-2-methyl-pyridin-3-yl]-3-methyl-8-(6-methylamino-pyridin-3-yl)-1,3-dihydro-imidazo[4,5-c]quinolin-2-one]	–	< 0.457

— US20100311714A1, “1H-IMIDAZO[4,5-c]QUINOLINONE COMPOUNDS” (priority 2009, published 2010)
